From patent US20230235358A1, “HOST DEFENSE SUPPRESSING METHODS AND COMPOSITIONS FOR MODULATING A GENOME” (FLAGSHIP PIONEERING INNOVATIONS VI, LLC, priority 2020, published 2023)

How the values were obtained:
[1] = system: primary human dermal fibroblasts; assay: Gene Writing efficiency (GFP flow cytometry / ddPCR) with BAY 11-7082; format: cell-based; details: addition of BAY11
Method: (§1) In this example, primary human dermal fibroblasts (ATCC PCS-201-012) are cultured according to ATCC instructions. Cells are nucleofected (Lonza Nucleofector®) with the following samples: • 1. mRNA encoding Gene Writer polypeptide targeting AAVS1+Gene Writer RNA template carrying a GFP reporter gene • 2. Condition (1) with genetically inactivated Gene Writer polypeptide • 3. Condition (1)+BAY 11-7082 • 4. Condition (1)+BAY 11-7082+IFN-beta
(§2) Gene Writing efficiency is measured from cultured cells 3 days after transfection by flow cytometry to assay the percentage of cells expressing GFP or by digital droplet PCR analysis with primers and probe on the junction between the template sequence and the targeted locus and on reference sequences as previously described (see PCT/US2019/048607). […] In some embodiments, the addition of BAY11 will increase one or both of the expression of the Gene Writer polypeptide, and the stability of the RNA template. In some embodiments, the addition of […] will also reduce cytotoxicity, e.g., cytotoxicity that is due to intracellular immune pathways.

human skin cells = details: cited from earlier work
[2] = system: primary human dermal fibroblasts; assay: Cytotoxicity (PrestoBlue) three days post transfection, Example 3; format: cell-based; details: addition of BAY11
Method: as §1, §2

mouse liver = assay: LNP-mediated delivery of firefly luciferase mRNA to the mouse liver (luciferase activity of liver homogenate); format: in vivo; details: C57BL/6 mice, i.v. 1 mg/kg, 6, 24, 48 hours, FIG. 2
Method: To measure the effectiveness of LNP-mediated delivery of firefly luciferase containing particles to the liver, LNPs were formulated and characterized as described in Example 9 and tested in vitro prior (Example 10) to administration to mice. C57BL/6 male mice (Charles River Labs) at approximately 8 weeks of age were dosed with LNPs via intravenous (i.v.) route at 1 mg/kg. Vehicle control animals were dosed i.v. with 300 μL phosphate buffered saline. Mice were injected via intraperitoneal route with dexamethasone at 5 mg/kg 30 minutes prior to injection of LNPs. Tissues were collected at necropsy at or 6, 24, 48 hours after LNP administration with a group size of 5 mice per time point. Liver and other tissue samples were collected, snap-frozen in liquid nitrogen, and stored at −80° C. until analysis.
Frozen liver samples were pulverized on dry ice and transferred to homogenization tubes containing lysing matrix D beads (MP Biomedical). Ice-cold 1×luciferase cell culture lysis reagent (CCLR) (Promega) was added to each tube and the samples were homogenized in a Fast Prep-24 5G Homogenizer (MP Biomedical) at 6 m/s for 40 seconds. The samples were transferred to a clean microcentrifuge tube and clarified by centrifugation. Prior to luciferase activity assay, the protein concentration of liver homogenates was determined for each sample using the Pierce™ BCA Protein Assay Kit (ThermoFisher Scientific) according to the manufacturer's instructions. Luciferase activity was measured with 200 μg (total protein) of liver homogenate using the luciferase assay reagent (Promega) according to manufacturer's instructions using an i3X SpectraMax plate reader (Molecular Devices). […] Reporter activity by the various formulations followed the ranking LIPIDV005>LIPIDV004>LIPIDV003. RNA expression was transient and enzyme levels returned near vehicle background by 48 hours. Post-administration. This assay validated the use of these ionizable lipids and their respective formulations for RNA systems for delivery to the liver.

| SMILES | Expression of the Gene Writer polypeptide and/or stability of the RNA template [1] | Expression of OCT4 from synthetic mRNA (human skin cells) | Cytotoxicity due to intracellular immune pathways [2] | Reporter (luciferase) activity in liver, ranking of formulations (mouse liver) |
| --- | --- | --- | --- | --- |
| Cc1ccc(S(=O)(=O)/C=C/C#N)cc1 [BAY11, BAY 11-7082] | increase | improve | reduce | – |
| CCCCC/C=C\C/C=C\CCCCCCCC(=O)OCC(COC(=O)CCC(OCCCCCCCC)OCCCCCCCC)COC(=O)OCCCN(CC)CC (stereo not drawn) [LIPIDV003] | – | – | – | LIPIDV005>LIPIDV004>LIPIDV003 |
| CCCCCCCCCOC(=O)CCCCCCCN(CCO)CCCCCCCC(=O)OC(CCCCCCCC)CCCCCCCC [LIPIDV004] | – | – | – | LIPIDV005>LIPIDV004>LIPIDV003 |
| CCCCCCCC(=O)N(CCCN(C)C)C(CCCCCCCCC(=O)OC(CCCCCC)CCCCCC)CCCCCCCCC(=O)OC(CCCCCC)CCCCCC [LIPIDV005] | – | – | – | LIPIDV005>LIPIDV004>LIPIDV003 |
